Results reported in US12691186B2, “B7-H3 miniproteins, conjugates, and uses thereof” (priority 2023, dated 2026).
Primed or numbered codes have the meaning given here. [ ]: non-standard residue; d: D form. The star is where a group is joined. Biotin = O=C1N[C@H]2[C@H](CS[C@H]2CCCCC(=O)*)N1; Lys(Me2) = CN(C)CCCC[C@H](N)C(=O)O; PEG4′ = not defined here

Legend:
[1] = test system: >6,500 different human proteins; test: Off-target binding, cell microarray platform (Retrogenix Assay) in HEK293 cells; details: biotin-labeled molecules
Procedure: To evaluate potential off-target binding, eight biotin-labeled molecules were tested in a cell microarray platform (Charles River Lab, Retrogenix Assay) having >6,500 different human proteins spanning diverse functions and subcellular locations.
Initially, two pools of molecules were tested. Pool #1 consisted of C298, C300, C302, C304, and pool #2 consisted of C306, C308, C310, and C312 at 2 μg/mL for each molecule. To perform this assay, HEK293 cells were plated on a dish and localized spots of cells were transiently over-expressed with a cDNA encoding for one of the >6,500 targets. Included in this library were two isoforms of CD276 (B7-H3) and B7-H3 related proteins (B7-1, B7-2, B7-H1/PD-L1, and B7-H2). The molecule pools were incubated on the fixed, over-expressing cell microarrays (n=2 per protein), and binding was visualized using Alexa Fluor 647 streptavidin fluorescence. All transfection efficiencies exceeded minimum thresholds for the microarray expression targets. Preliminary interactions identified from pooled results were re-spotted in duplicates, and each of the eight compounds were tested individually (n=2) at 2 μg/mL and/or in dose response against these targets as described above to validate the interactions.
All positive control interactions were strong and passed quality control. Specific interactions observed (median SNR≥1) confirmed on-target B7-H3 binding in two different isoforms for each of the eight test molecules. These interactions with the primary target occurred after fixation and in live cells (absence of fixation). No significant additional interactions were confirmed for any test molecules outside of B7-H3, indicating high specificity for the primary target (data not shown).

[2] = test system: opossum kidney proximal tubule cells; test: OK-PTC uptake assay of miniprotein conjugates in presence of scaffold A decoys; format: cell-based; details: compound 20 μM; for % Uptake reduction in the presence of a decoy C118: 20-fold molar excess of decoy C118; for % Uptake reduction in the presence of a decoy C119: 20-fold molar excess of decoy C119
Procedure: This Example describes reduction of uptake of exemplary truncated and constrained B7-H3 miniprotein conjugates (C272, C308, C234, C394, C250, and C228) when combined with exemplary scaffold A decoys (C118, C119 and C120) as compared to no decoy. Uptake of compounds was evaluated in opossum kidney proximal tubule cells (as described in Example 5). Here, cells were treated with a compound in the presence or absence of a 20-fold molar excess of exemplary scaffold A decoys, C118, C119, and C120. Results depicting uptake of six exemplary B7-H3-targeting compounds, C272, C308, C234, C394, C250, and C228, in OK-PTC cells in the presence and absence of exemplary decoys C118, C119, and C120 (scaffold A decoys) are shown in Table 13. The B7-H3-targeting compounds were used at 20 μM and the decoys used at a 20-fold (with C272, C308, C234, C394, and C250) and 10-fold (with C228) molar excess.

CC[C@H](C)[C@@H]1NC(=O)[C@H](Cc2ccccc2)NC(=O)[C@H](C)NC(=O)[C@H](CCCCN(C)C)NC(=O)[C@H]([C@@H](C)CC)NC(=O)[C@H](CCC(N)=O)NC(=O)[C@H](C)NC(=O)[C@H](Cc2ccc(O)cc2)NC(=O)[C@H]([C@@H](C)O)NC(=O)[C@H](CC(C)C)NC(=O)[C@@H]2CSSC[C@@H](C(=O)N[C@@H](CO)C(N)=O)NC(=O)[C@H](CC(C)C)NC(=O)[C@H](CCC(=O)O)NC(=O)[C@H](CCCCN)NC(=O)[C@H](C)NC(=O)[C@H](CCC(=O)O)NC(=O)[C@H](CO)NC(=O)[C@H](CC(C)C)NC(=O)[C@H]([C@@H](C)CC)NC(=O)[C@H](CCC(=O)O)NC(=O)[C@H](C)NC(=O)[C@H](CO)NC(=O)[C@H](CCC(N)=O)NC(=O)[C@H](CSSC[C@H](NC(=O)CCOCCOCCOCCOCCNC(=O)CCCC[C@@H]3SC[C@@H]4NC(=O)N[C@@H]43)C(=O)N[C@@H](C)C(=O)N[C@@H](CCCNC(=N)N)C(=O)N[C@@H](CCC(=O)O)C(=O)N[C@@H](CCCCN)C(=O)N[C@@H]([C@@H](C)CC)C(=O)N[C@@H](C)C(=O)N[C@@H](C)C(=O)N[C@@H](CC(C)C)C(=O)N[C@@H](CO)C(=O)N[C@@H](CCC(=O)O)C(=O)N[C@@H]([C@@H](C)CC)C(=O)N[C@@H]([C@@H](C)CC)C(=O)N[C@@H](Cc3c[nH]c4ccccc34)C(=O)N[C@@H](CC(C)C)C(=O)N3CCC[C@H]3C(=O)N2)NC(=O)[C@@H]2CCCN2C(=O)[C@H](CC(=O)O)NC(=O)[C@H](CC(=O)O)NC(=O)[C@H](CC(N)=O)NC(=O)[C@H](CC(C)C)NC(=O)[C@H](C)NC(=O)[C@H](C)NC1=O [Compound C300]
background binding to untransfected HEK293 cells [1]: low-background binding

CC[C@H](C)[C@@H]1NC(=O)[C@H](Cc2ccccc2)NC(=O)[C@H](C)NC(=O)[C@H](CCCCNC)NC(=O)[C@H]([C@@H](C)CC)NC(=O)[C@H](CCC(N)=O)NC(=O)[C@H](C)NC(=O)[C@H](Cc2ccc(O)cc2)NC(=O)[C@H]([C@@H](C)O)NC(=O)[C@H](CC(C)C)NC(=O)[C@@H]2CSSC[C@@H](C(=O)N[C@@H](CO)C(N)=O)NC(=O)[C@H](CC(C)C)NC(=O)[C@H](CCC(=O)O)NC(=O)[C@H](CCCCNC)NC(=O)[C@H](C)NC(=O)[C@H](CCC(=O)O)NC(=O)[C@H](CO)NC(=O)[C@H](CC(C)C)NC(=O)[C@H]([C@@H](C)CC)NC(=O)[C@H](CC(N)=O)NC(=O)[C@H](C)NC(=O)[C@H](CO)NC(=O)[C@H](CCC(N)=O)NC(=O)[C@H](CSSC[C@H](NC(=O)CCOCCOCCOCCOCCNC(=O)CCCC[C@@H]3SC[C@@H]4NC(=O)N[C@@H]43)C(=O)N[C@@H](C)C(=O)N[C@@H](CCCNC(=N)N)C(=O)N[C@@H](CCC(=O)O)C(=O)N[C@@H](CCCCN)C(=O)N[C@@H]([C@@H](C)CC)C(=O)N[C@@H](C)C(=O)N[C@@H](C)C(=O)N[C@@H](CC(C)C)C(=O)N[C@@H](CO)C(=O)N[C@@H](CCC(=O)O)C(=O)N[C@@H]([C@@H](C)CC)C(=O)N[C@@H]([C@@H](C)CC)C(=O)N[C@@H](Cc3c[nH]c4ccccc34)C(=O)N[C@@H](CC(C)C)C(=O)N3CCC[C@H]3C(=O)N2)NC(=O)[C@@H]2CCCN2C(=O)[C@H](CC(=O)O)NC(=O)[C@H](CC(=O)O)NC(=O)[C@H](CC(N)=O)NC(=O)[C@H](CC(C)C)NC(=O)[C@H](C)NC(=O)[C@H](C)NC1=O [Compound C302]
background binding to untransfected HEK293 cells [1]: low-background binding

CC[C@H](C)[C@@H]1NC(=O)[C@H](Cc2ccccc2)NC(=O)[C@H](C)NC(=O)[C@H](CCCCNC)NC(=O)[C@H]([C@@H](C)CC)NC(=O)[C@H](CCC(N)=O)NC(=O)[C@H](C)NC(=O)[C@H](Cc2ccc(O)cc2)NC(=O)[C@H]([C@@H](C)O)NC(=O)[C@H](CC(C)C)NC(=O)[C@@H]2CSSC[C@@H](C(=O)N[C@@H](CO)C(N)=O)NC(=O)[C@H](CC(C)C)NC(=O)[C@H](CCC(=O)O)NC(=O)[C@H](CCCCNC)NC(=O)[C@H](C)NC(=O)[C@H](CCC(=O)O)NC(=O)[C@H](CO)NC(=O)[C@H](CC(C)C)NC(=O)[C@H]([C@@H](C)CC)NC(=O)[C@H](CCC(=O)O)NC(=O)[C@H](CO)NC(=O)[C@H](CO)NC(=O)[C@H](CCC(N)=O)NC(=O)[C@H](CSSC[C@H](NC(=O)CCOCCOCCOCCOCCNC(=O)CCCC[C@@H]3SC[C@@H]4NC(=O)N[C@@H]43)C(=O)N[C@@H](C)C(=O)N[C@@H](CCCC[N+](C)(C)C)C(=O)N[C@@H](CCC(=O)O)C(=O)N[C@@H](CCCCN)C(=O)N[C@@H]([C@@H](C)CC)C(=O)N[C@@H](C)C(=O)N[C@@H](C)C(=O)N[C@@H](CC(C)C)C(=O)N[C@@H](CO)C(=O)N[C@@H](CCC(=O)O)C(=O)N[C@@H]([C@@H](C)CC)C(=O)N[C@@H]([C@@H](C)CC)C(=O)N[C@@H](Cc3c[nH]c4ccccc34)C(=O)N[C@@H](CC(C)C)C(=O)N3CCC[C@H]3C(=O)N2)NC(=O)[C@@H]2CCCN2C(=O)[C@H](CC(=O)O)NC(=O)[C@H](CC(=O)O)NC(=O)[C@H](CC(N)=O)NC(=O)[C@H](CC(C)C)NC(=O)[C@H](C)NC(=O)[C@H](C)NC1=O [Compound C304]
background binding to untransfected HEK293 cells [1]: low-background binding

CC[C@H](C)[C@@H]1NC(=O)[C@H](Cc2ccccc2)NC(=O)[C@H](C)NC(=O)[C@H](CCCCNC)NC(=O)[C@H]([C@@H](C)CC)NC(=O)[C@H](CCC(N)=O)NC(=O)[C@H](C)NC(=O)[C@H](Cc2ccc(O)cc2)NC(=O)[C@H](CC(N)=O)NC(=O)[C@H](CC(C)C)NC(=O)[C@@H]2CSSC[C@@H](C(=O)N[C@@H](CO)C(N)=O)NC(=O)[C@H](CC(C)C)NC(=O)[C@H](CCC(=O)O)NC(=O)[C@H](CCCCNC)NC(=O)[C@H](C)NC(=O)[C@H](CCC(=O)O)NC(=O)[C@H](CO)NC(=O)[C@H](CC(C)C)NC(=O)[C@H]([C@@H](C)CC)NC(=O)[C@H](CCC(=O)O)NC(=O)[C@H](CO)NC(=O)[C@H](CO)NC(=O)[C@H](CCC(N)=O)NC(=O)[C@H](CSSC[C@H](NC(=O)CCOCCOCCOCCOCCNC(=O)CCCC[C@@H]3SC[C@@H]4NC(=O)N[C@@H]43)C(=O)N[C@@H](C)C(=O)N[C@@H](CCCC[N+](C)(C)C)C(=O)N[C@@H](CCC(=O)O)C(=O)N[C@@H](CCCCN)C(=O)N[C@@H]([C@@H](C)CC)C(=O)N[C@@H](C)C(=O)N[C@@H](C)C(=O)N[C@@H](CC(C)C)C(=O)N[C@@H](CO)C(=O)N[C@@H](CCC(=O)O)C(=O)N[C@@H]([C@@H](C)CC)C(=O)N[C@@H]([C@@H](C)CC)C(=O)N[C@@H](Cc3c[nH]c4ccccc34)C(=O)N[C@@H](CC(C)C)C(=O)N3CCC[C@H]3C(=O)N2)NC(=O)[C@@H]2CCCN2C(=O)[C@H](CC(=O)O)NC(=O)[C@H](CC(=O)O)NC(=O)[C@H](CC(N)=O)NC(=O)[C@H](CC(C)C)NC(=O)[C@H](C)NC(=O)[C@H](C)NC1=O [Compound C310]
background binding to untransfected HEK293 cells [1]: low-background binding

C250 ({Biotin-PEG4′}-CAKEKIAALSEIIWLPCLTYAQI[Lys(Me2)]AFIAALNDDPCQSSEILSEAKELNDSQCP-NH2; disulfide (positions not given here); also: disulfide bonds between pairs of the four Cys, pairing not given here) [Compound C250]
% Uptake reduction in the presence of a decoy C118 [2]: 90.2%
% Uptake reduction in the presence of a decoy C119 [2]: 97.4%

C272 (CAREKIAALSEIIWLPCLTYAQIXAFIAALNDDPCQSAEILSEAKELCS; Biotin-PEG4 N-term, dimethyllysine, C-amide; SITE 24 dimethyllysine) [Compound C272]
% Uptake reduction in the presence of a decoy C118 [2]: 95.6%
% Uptake reduction in the presence of a decoy C119 [2]: 98.8%
% Uptake reduction in the presence of a decoy C120 ([2]; 20-fold molar excess of decoy C120): 97.5%
